Laboratory results taken from US7135464B2, “Method of administering decitabine” (SuperGen, Inc., priority 2002, dated 2006).
Where “and” joins values, the source holds several entries; their conditions need not be identical. Equal values may be shown once. Read-outs that look alike come from different tables or passages of the source.

Assays:
[1] = cited from earlier work
[2] = aqueous solution
[3] = aqueous solution, cited from earlier work

Nc1ncn([C@H]2C[C@H](O)[C@@H](CO)O2)c(=O)n1 [decitabine, 5-aza-2′-deoxycytidine]
decitabine concentration in patients ([1]; 100 mg/m^2 as a 3-hour infusion): about 0.4 μg/ml and ~2 μM | total urinary excretion, % of the administered dose ([1]; humans): less than 1% | volume of distribution ([1]; humans): about 4.6 L/kg | decitabine remaining in active form ([2]; storage at 4° C. for 6 days): less than 50% | decitabine remaining in active form ([2]; storage at 25° C. for 1 day): less than 50% | decrease of concentration of decitabine ([3]; after 4 hours at 25° C.): about 10% | decrease of concentration of decitabine ([3]; after 24 hours at 4° C.): about 10%
